Where two headings read alike, the source gives them in different places.
Key:
[1] = target: T1, recombinant NMDARs composed of NR1 and NR2D subunits (Homo sapiens, UniProt O15399+Q05586); assay: NMDA-induced current in transiently transfected HEK293 cells expressing recombinant NR1/NR2D NMDARs; format: cell-based; conditions: for block of the NMDA-induced current, NR1/NR2D: 100 nM, co-application of NMDA and glycine, absence of Mg2+
T1 construct: expressed in transfected cells; host or cells: HEK293, transiently transfected
Description: (§1) This example also compared the blocking efficacy of the tanshinones in transiently transfected human embryonic kidney (HEK) 293 cells expressing recombinant NMDARs containing either the NR1/NR2B or NR1/NR2D subunit combinations.

GABAA receptors = assay: whole-cell patch clamp, currents activated by GABA in cultured cortical neurons; format: cell-based, mouse; conditions: GABA 20 μM; n=3
Description: (§2) The whole-cell patch clamp technique was used in mouse cortical neuronal cultures in order to screen for NMDAR antagonists in Danshen, the root of Salvia milthiorriza Bunge. […] Tanshinones are plant-derived diterpenoid quinones.
(§3) The present example examined whether tanshinones inhibited currents of AMPA and GABAA receptors evoked by AMPA or GABA, respectively.

AMPA receptors = assay: whole-cell patch clamp, currents activated by AMPA in mouse cultured cortical neurons; format: cell-based; conditions: AMPA 10 μM; 100 nM compound
Description: as §2, §3

NMDARs = assay: whole-cell patch clamp, NMDA-evoked currents in cultured mouse cortical neurons; format: cell-based
Method: NMDA (200 μM) alone, NMDA plus aqueous Salvia miltiorrhiza extract (100 μl in 10 ml Hanks solution) and NMDA plus 20 nM tanshinone IIA were applied for about 3 seconds (black bars) in the continuous presence of glycine (10 μM) and absence of Mg^2+.
The ordinate indicates the percent steady-state block of currents evoked by 200 μM NMDA plus 10 μM glycine in the absence of Mg^2+.
NMDA (100 μM) or increasing concentrations of NMDA (100 μM-1600 μM) plus tanshinone IIA (20 nM) were applied for about 3 seconds (indicated by the black bars) in the continuous presence of glycine (10 μM) and absence of Mg^2+,
I/V curves were constructed by subtracting the response in the presence of NMDA (200 μM) plus tanshinone from the control response during the application of NMDA alone for 2 seconds at membrane holding potentials from −60 mV to +60 mV. Data from 2 to 5 sweeps were averaged for each trace.
as §2
The concentration dependence of the steady-state block of NMDA-induced currents was determined in order to obtain the dose/response curve of the NMDAR antagonist action of the tanshinones (FIG. 2). The data were fit according to a logistic equation and the concentration at which 50% of the NMDA-evoked response was blocked (IC50) was calculated from the equation.
Concentration-response curves were obtained in the presence of a saturating dose of tanshinone and increasing amounts of NMDA in cultured mouse cortical neurons (FIG. 3a).
The voltage-dependence of the inhibitory effects of the tanshinones was assessed by constructing current/voltage (I/V) plots in the presence or absence of the drugs (FIG. 3b).

[2] = target: T2, recombinant NMDARs composed of the NR1 and NR2B subunits (Homo sapiens, UniProt Q05586+Q13224); assay: NMDA-induced current in transiently transfected HEK293 cells expressing recombinant NR1/NR2B NMDARs; format: cell-based
T2 construct: expressed in transfected cells; host or cells: HEK293, transiently transfected
Description: as §1

[3] = tested on: central benzodiazepine receptors; conditions: cited from earlier work
[4] = 200 μM NMDA plus 10 μM glycine, absence of Mg2+; 95% confidence interval given in brackets; read-out: IC50, steady-state block of NMDA-induced currents
[5] = I/V plots, holding potentials −60 mV to +60 mV
[6] = purified tanshinones, patch-clamp assay (20 nM, FIG. 1d)

T1 sequence (O15399 28-1336, other chains not shown): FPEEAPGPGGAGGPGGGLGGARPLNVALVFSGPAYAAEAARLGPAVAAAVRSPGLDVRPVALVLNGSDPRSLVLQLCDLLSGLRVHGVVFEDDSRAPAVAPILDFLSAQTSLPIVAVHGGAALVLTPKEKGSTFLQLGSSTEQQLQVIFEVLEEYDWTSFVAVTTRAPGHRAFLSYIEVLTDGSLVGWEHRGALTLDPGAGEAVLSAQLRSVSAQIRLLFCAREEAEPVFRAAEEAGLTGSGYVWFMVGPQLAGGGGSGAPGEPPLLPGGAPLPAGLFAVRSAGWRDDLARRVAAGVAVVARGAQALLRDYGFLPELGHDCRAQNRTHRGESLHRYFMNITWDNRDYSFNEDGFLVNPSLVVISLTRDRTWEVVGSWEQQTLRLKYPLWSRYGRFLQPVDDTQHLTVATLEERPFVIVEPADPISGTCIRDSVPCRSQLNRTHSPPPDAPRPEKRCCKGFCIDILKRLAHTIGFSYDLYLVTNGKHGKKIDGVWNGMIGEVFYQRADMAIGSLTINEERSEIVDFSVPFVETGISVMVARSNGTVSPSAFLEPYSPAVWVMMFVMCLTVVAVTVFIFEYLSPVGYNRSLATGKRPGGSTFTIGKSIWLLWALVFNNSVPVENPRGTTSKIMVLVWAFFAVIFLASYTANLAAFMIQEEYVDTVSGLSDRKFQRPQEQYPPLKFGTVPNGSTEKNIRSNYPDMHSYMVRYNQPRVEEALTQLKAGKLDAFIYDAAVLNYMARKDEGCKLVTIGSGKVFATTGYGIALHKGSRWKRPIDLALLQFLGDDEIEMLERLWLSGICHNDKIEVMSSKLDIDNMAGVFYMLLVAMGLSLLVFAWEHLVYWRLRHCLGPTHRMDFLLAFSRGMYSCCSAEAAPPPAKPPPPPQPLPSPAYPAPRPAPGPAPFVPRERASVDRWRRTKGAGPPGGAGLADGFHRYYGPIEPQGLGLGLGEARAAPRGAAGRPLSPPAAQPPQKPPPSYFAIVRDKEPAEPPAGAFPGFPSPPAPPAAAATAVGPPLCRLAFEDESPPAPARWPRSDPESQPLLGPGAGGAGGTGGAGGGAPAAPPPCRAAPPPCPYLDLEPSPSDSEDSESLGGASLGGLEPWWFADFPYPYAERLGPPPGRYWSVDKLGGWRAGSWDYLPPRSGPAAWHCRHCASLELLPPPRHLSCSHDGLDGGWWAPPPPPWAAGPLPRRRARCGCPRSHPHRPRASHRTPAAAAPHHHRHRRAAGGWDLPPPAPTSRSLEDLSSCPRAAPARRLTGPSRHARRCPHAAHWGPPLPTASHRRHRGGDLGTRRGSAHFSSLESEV
T2 sequence (Q13224 27-1484, other chains not shown): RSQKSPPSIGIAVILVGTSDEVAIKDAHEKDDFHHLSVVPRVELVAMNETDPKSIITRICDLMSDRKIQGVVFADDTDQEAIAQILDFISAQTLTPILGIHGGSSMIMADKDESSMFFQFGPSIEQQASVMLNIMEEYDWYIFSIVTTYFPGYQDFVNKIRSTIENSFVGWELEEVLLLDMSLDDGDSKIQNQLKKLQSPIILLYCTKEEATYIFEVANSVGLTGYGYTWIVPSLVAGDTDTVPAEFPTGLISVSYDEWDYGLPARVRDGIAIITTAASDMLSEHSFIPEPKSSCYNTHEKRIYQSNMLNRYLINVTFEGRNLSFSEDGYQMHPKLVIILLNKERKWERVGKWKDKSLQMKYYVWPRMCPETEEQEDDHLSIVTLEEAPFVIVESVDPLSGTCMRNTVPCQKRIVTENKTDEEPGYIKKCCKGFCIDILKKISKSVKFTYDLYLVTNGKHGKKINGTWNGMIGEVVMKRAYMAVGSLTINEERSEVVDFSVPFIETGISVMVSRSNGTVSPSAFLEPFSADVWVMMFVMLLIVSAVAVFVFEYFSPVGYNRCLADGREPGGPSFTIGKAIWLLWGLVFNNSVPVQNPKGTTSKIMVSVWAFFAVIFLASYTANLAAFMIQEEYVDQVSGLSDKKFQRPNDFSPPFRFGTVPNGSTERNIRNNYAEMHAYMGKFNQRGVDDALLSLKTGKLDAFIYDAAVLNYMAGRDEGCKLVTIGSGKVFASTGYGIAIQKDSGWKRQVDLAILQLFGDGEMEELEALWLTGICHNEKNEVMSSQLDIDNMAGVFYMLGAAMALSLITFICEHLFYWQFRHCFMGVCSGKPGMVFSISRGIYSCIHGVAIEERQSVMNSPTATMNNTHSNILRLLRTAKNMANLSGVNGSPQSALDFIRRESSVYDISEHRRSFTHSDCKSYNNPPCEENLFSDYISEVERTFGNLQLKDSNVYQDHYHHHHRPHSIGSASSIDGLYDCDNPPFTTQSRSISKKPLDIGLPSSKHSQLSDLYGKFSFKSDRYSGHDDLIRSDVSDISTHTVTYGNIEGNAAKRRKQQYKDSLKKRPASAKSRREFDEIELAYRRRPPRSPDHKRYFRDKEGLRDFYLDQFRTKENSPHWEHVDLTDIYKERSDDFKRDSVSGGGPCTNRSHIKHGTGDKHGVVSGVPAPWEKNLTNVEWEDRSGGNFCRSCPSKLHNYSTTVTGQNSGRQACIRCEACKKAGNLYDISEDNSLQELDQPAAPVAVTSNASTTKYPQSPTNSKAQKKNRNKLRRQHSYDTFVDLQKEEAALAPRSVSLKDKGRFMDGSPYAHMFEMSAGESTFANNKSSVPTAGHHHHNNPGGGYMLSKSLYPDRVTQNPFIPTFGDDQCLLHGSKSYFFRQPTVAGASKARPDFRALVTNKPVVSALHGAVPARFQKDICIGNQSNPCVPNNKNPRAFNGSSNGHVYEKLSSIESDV

| SMILES | block of the NMDA-induced current, NR1/NR2D [1] [%] | voltage-dependence of inhibition, NR2D containing receptors ([1]; greatly reduced efficacy at positive potentials) | IC50 (NMDARs; [4]) [nM] | voltage-dependence of inhibition, NR2B containing receptors [2] | block of currents activated by GABA (GABAA receptors) [%] | inhibition of currents activated by AMPA (AMPA receptors) [%] | voltage-dependence of inhibition of NMDA-induced whole-cell currents (NMDARs; [5]) | mode of inhibition with respect to agonist NMDA and co-agonist glycine (NMDARs; fixed saturating dose of tanshinone (20 nM), increasing NMDA 100-1600 μM) | inhibition of the NMDA-induced currents (NMDARs; [6]) | IC50 (NMDARs; read-out: IC50, steady-state block of NMDA-induced currents; 200 μM NMDA plus 10 μM glycine, absence of Mg2+; 95% confidence interval given in brackets) [nM] | activity at central benzodiazepine receptors [3] |
| --- | --- | --- | --- | --- | --- | --- | --- | --- | --- | --- | --- |
| Cc1coc2c1C(=O)C(=O)c1c-2ccc2c1CCCC2(C)CO (stereo not drawn) [tanshinone IIB] | 52±11 | – | 1.1 | – | – | – | voltage-independent | – | strong, but readily reversible inhibition | – | – |
| C[C@H]1COC2=C1C(=O)C(=O)c1c2ccc2c1CCCC2(C)C [cryptotanshinone] | 10±1 | – | – | – | – | – | – | – | – | 1.7 | – |
| Cc1coc2c1C(=O)C(=O)c1c-2ccc2c(C)cccc12 [tanshinone I] | 4±1 | – | 3.7 | – | – | – | voltage-independent | – | strong, but readily reversible inhibition | – | – |

Further lines, with some results ahead:

| block of the NMDA-induced current, NR1/NR2D [1] [%] | voltage-dependence of inhibition, NR2D containing receptors ([1]; greatly reduced efficacy at positive potentials) | IC50 (NMDARs; [4]) [nM] | voltage-dependence of inhibition, NR2B containing receptors [2] | SMILES | block of currents activated by GABA (GABAA receptors) [%] | inhibition of currents activated by AMPA (AMPA receptors) [%] | voltage-dependence of inhibition of NMDA-induced whole-cell currents (NMDARs; [5]) | mode of inhibition with respect to agonist NMDA and co-agonist glycine (NMDARs; fixed saturating dose of tanshinone (20 nM), increasing NMDA 100-1600 μM) | inhibition of the NMDA-induced currents (NMDARs; [6]) | IC50 (NMDARs; read-out: IC50, steady-state block of NMDA-induced currents; 200 μM NMDA plus 10 μM glycine, absence of Mg2+; 95% confidence interval given in brackets) [nM] | activity at central benzodiazepine receptors [3] |
| --- | --- | --- | --- | --- | --- | --- | --- | --- | --- | --- | --- |
| 61±11 | voltage-dependent | 3.4 | voltage-independent | Cc1coc2c1C(=O)C(=O)c1c-2ccc2c1CCCC2(C)C [tanshinone IIA] | 10±3 | 6±3 | voltage-independent | non-competitive inhibition | strong, but readily reversible inhibition | – | – |
| 11±2 | – | 2.1 | – | CC(C)C1=Cc2ccc3c(c2C(=O)C1=O)CCCC3(C)C [miltirone] | – | – | voltage-independent | – | strong, but readily reversible inhibition | – | partial agonists |

— US20020077352A1, “N-methyl-D-aspartate receptor antagonists” (priority 2000, published 2002)
